Structures can show the parent of a compound that is named as a salt.

In experiment [1] the target is muscarinic cholinergic receptors. Format: binding. The note with it: rat brain homogenate, [3H]QNB, 25° C., pH 7.4; read-out: MRBA IC50.
The target of a further experiment is brain dopamine receptors. The experiment in a line: Haloperidol receptor binding assay (HRBA), inhibition of 3H-haloperidol binding. The note with it: rat corpus striatum, 0.6 nM 3H-haloperidol, pH 7.7.
Experiment [2] deals with apomorphine-induced emesis in dogs. The experiment can be described thus: Apomorphine emesis assay. Format: in vivo, dog. The conditions noted are these: Canis lupus familiaris, oral, apomorphine hydrochloride 0.1 mg/kg s.c. The procedure: 3. APOMORPHINE EMESIS ASSAY
Method: Dogs, unsegregated with respect to breed or sex, are used. They are fasted for 16 hours prior to the administration of the test compound. The test compounds are given orally by stomach tube at intervals prior to a subcutaneous injection of 0.1 mg/kg of apomorphine hydrochloride. The dogs are observed for changes in behavior or signs of neuropharmacologic action during the period between drugs and the emetic. After the apomorphine injection the frequency of vomiting episodes is recorded.
The number of dogs vomiting per total number tested, the number of vomiting episodes for each dog, and the average number of episodes are reported for dogs treated with the test compound and dogs treated with vehicle.
The drug is rated as being active if no vomiting episodes are seen in 50 percent or more of the dogs tested.

The target of a further experiment is Dopamine D2 receptor (Rattus norvegicus, UniProt P61169). The experiment can be described thus: Affinity for dopamine D2 receptors in rat brain membranes. Format: binding.
The target in experiment [3] is Muscarinic Cholinergic receptor. The experiment can be described thus: Affinity for muscarinic cholinergic receptors in rat brain membranes. It is filed as binding. The procedure:
This test uses the displacement of [^3 H] quinuclidinyl benzilate ([^3 H]QNB) from specific muscarinic cholinergic receptors in the rat brain to measure in vitro anticholinergic activity of compounds. […]. A Long-Evans male rat weighing 180-200 grams is routinely used. The brain tissue homogenate along with appropriate concentrations of test compounds and [^3 H]QNB is incubated for one hour at 25° C. in a buffer medium of 50 mM Na-K PO4 pH 7.4. The material is filtered and washed on a millipore filter using Whatman GF/B filters. The filters are counted on a scintillation spectrophotometer. A maximal displacement by 0.1 mM oxotremorine is used to determine how much of the total binding is specific for muscarinic receptors.
Results: The results are reported as percent inhibition of total specific binding. Reference: Yamamura, Henry L. and Snyder, Solomon H. (1974). Muscarinic Cholinergic Binding in Rat Brain Proc. Nat. Acad. Sci. USA Vol 71 No. 5 pp. 1725-1729 May 1974.
(§1) for Dopamine D2, Muscarinic, and
(§2) Histamine H1 Receptors in Rat Brain Membranes

Another experiment concerns the target T1, Histamine H1 receptor (Rattus norvegicus, UniProt P31390).
T1 construct: Histamine H1 Receptors in Rat Brain Membranes; from tissue; host or cells: rat brain membranes
The experiment can be described thus: Affinity for histamine H1 receptors in rat brain membranes. It is filed as binding. The conditions noted are these: rat brain membranes; read-out: Receptor Ki, Histamine H1.
Excerpt: as §1, §2
*Tran V. T., Lebovitz, R., Toll, L., and Snyder, S. H.: [^3 H]Doxepin
interactions with histamine H1 -receptors in guinea pig and rat brai

Chain of Dopamine D2 receptor (P61169 whole entry): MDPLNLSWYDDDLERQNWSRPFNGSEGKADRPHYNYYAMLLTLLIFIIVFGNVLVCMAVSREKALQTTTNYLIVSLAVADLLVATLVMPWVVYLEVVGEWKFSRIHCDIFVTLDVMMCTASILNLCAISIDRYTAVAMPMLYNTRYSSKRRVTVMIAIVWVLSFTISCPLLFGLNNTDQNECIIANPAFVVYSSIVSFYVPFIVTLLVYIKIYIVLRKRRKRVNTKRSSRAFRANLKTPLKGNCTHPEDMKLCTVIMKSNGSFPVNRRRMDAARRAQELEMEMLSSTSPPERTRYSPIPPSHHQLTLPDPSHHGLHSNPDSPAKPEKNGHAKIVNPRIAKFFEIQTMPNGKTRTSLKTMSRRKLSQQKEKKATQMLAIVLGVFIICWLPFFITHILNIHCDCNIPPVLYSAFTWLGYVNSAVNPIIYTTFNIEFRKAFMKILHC
T1 sequence (P31390 whole entry): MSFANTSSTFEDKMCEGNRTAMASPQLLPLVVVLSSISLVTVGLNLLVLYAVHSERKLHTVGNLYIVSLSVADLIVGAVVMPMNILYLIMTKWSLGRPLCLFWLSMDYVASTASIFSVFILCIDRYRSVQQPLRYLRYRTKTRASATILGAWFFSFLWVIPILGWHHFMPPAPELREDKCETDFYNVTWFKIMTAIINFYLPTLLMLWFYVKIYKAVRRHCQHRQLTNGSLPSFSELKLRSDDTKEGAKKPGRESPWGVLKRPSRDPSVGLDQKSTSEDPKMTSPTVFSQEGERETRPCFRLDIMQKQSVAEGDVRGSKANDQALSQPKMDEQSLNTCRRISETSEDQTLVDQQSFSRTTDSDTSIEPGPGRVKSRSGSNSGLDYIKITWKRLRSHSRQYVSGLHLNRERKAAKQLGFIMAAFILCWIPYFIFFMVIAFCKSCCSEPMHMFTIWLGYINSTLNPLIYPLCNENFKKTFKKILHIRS

In general, IC50 refers to the point on the concentration scale where inhibition reaches its midpoint. As usually defined, the ED50 is the dose that gives a 50% effect, or the effect in half of the subjects. One may read the Ki as the equilibrium dissociation constant of an inhibitor or competing ligand from its target. As to `c1ccc(C(=C2CCN(CCN3CCOCC3)CC2)c2ccccc2)cc1` [Compound 1, Morpholine, 4-[2-[4-(diphenylmethylene)-1-piperidinyl]ethyl], dihydrochloride], the IC50 in experiment [1] amounted to 148 nM; on brain dopamine receptors, 29 nM. Moreover, the ED50 in experiment [2] is approximately 5 mg/kg. For the same compound, the values for the Ki (on Dopamine D2 receptor; in experiment [3]; on Histamine H1 receptor) were 31 nM, 32 nM and 20 nM, respectively.

(Values after patent publication US4584301A, “Diphenylmethylene piperidines, compositions and methods of use” (Warner-Lambert Company, priority 1985, dated 1986).)
